Measurements as given in PubChem BioAssay AID330 (DTP/NCI, 2004).
“And” between values parts separate entries of the source, which are not always exact repeats. Identical values can stand only once. Toxic doses and inconclusive results are not listed. Peptide text beside a SMILES is read from it. * marks the point of attachment. Cbz = O=C(OCc1ccccc1)*

System: P388 leukemia ip, CD2F1 mice, survival T/C
Assay: NCI In Vivo Anticancer Drug Screen. Data for tumor model P388 Leukemia (intraperitoneal) in CD2F1 (CDF1) mice
Conditions: endpoint: median survival time, higher = longer survival
Method in brief: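 Mice carrying the transplanted tumor received test compound or vehicle. Survival was recorded in each group, and the value is the treated-group measurement divided by that of the vehicle-treated control group.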

[1] = dose: 25.0 mg/kg/injection, schedule: Q01DX009 (ip), vehicle: saline with Tween-80
[2] = dose: 50.0 mg/kg/injection, schedule: Q01DX009 (ip), vehicle: saline with Tween-80
[3] = dose: 12.5 mg/kg/injection, schedule: Q01DX005 (ip), vehicle: Klucel (hydroxypropylcellulose) (HPC)
[4] = dose: 25.0 mg/kg/injection, schedule: Q01DX005 (ip), vehicle: Klucel (hydroxypropylcellulose) (HPC)
[5] = dose: 50.0 mg/kg/injection, schedule: Q01DX005 (ip), vehicle: Klucel (hydroxypropylcellulose) (HPC)
[6] = dose: 50.0 mg/kg/injection, schedule: Q01DX009 (ip), vehicle: saline
[7] = dose: 100.0 mg/kg/injection, schedule: Q01DX009 (ip), vehicle: saline
[8] = dose: 200.0 mg/kg/injection, schedule: Q01DX009 (ip), vehicle: saline
[9] = dose: 100.0 mg/kg/injection, schedule: Q01DX005 (ip), vehicle: Klucel (hydroxypropylcellulose) (HPC)
[10] = dose: 200.0 mg/kg/injection, schedule: Q01DX005 (ip), vehicle: Klucel (hydroxypropylcellulose) (HPC)
[11] = dose: 100.0 mg/kg/injection, schedule: Q04DX003 (ip), vehicle: saline with Tween-80
[12] = dose: 200.0 mg/kg/injection, schedule: Q04DX003 (ip), vehicle: saline with Tween-80
[13] = dose: 400.0 mg/kg/injection, schedule: Q04DX003 (ip), vehicle: saline with Tween-80
[14] = dose: 12.5 mg/kg/injection, schedule: Q01DX009 (ip), vehicle: saline with Tween-80

COC(=O)CC1C2(C)CC34OC5(C)OC6(C7CC(=O)OC(c8ccoc8)C7(C)CCC6(O5)C13C)C(OC(=O)C(C)C)C4(O)C2OC(=O)C(C)C (stereo not given)
T/C (dose: 0.37 mg/kg/injection, schedule: Q01DX009 (ip), vehicle: Klucel (hydroxypropylcellulose) (HPC)): 109 % of control
T/C (dose: 0.75 mg/kg/injection, schedule: Q01DX009 (ip), vehicle: Klucel (hydroxypropylcellulose) (HPC)): 109 % of control
T/C (dose: 1.5 mg/kg/injection, schedule: Q01DX009 (ip), vehicle: Klucel (hydroxypropylcellulose) (HPC)): 102 % of control
T/C (dose: 3.0 mg/kg/injection, schedule: Q01DX009 (ip), vehicle: Klucel (hydroxypropylcellulose) (HPC)): 101 % of control

CC1NC(=O)OC12CCCCC2 (stereo not given)
T/C [1]: 93 % of control
T/C [2]: 100 % of control

CCc1ccc(C2=C(Cl)C(=O)C(c3ccccc3)=C(Cl)C2=O)cc1
T/C [3]: 98 % of control
T/C [4]: 93 % of control
T/C [5]: 93 % of control and 98 % of control

O=C1OC2C(I)C3CC1C2C3 (stereo not given)
T/C [1]: 100 % of control
T/C (dose: 25.0 mg/kg/injection, schedule: Q04DX003 (ip), vehicle: saline with Tween-80): 104 % of control
T/C [2]: 110 % of control
T/C (dose: 50.0 mg/kg/injection, schedule: Q04DX003 (ip), vehicle: saline with Tween-80): 104 % of control

Nc1nc2c(c(=O)[nH]1)[N+]1=CN(c3ccc(C(=O)NC(CCC(=O)O)C(=O)O)cc3)CC1CC2 (stereo not given)
T/C (dose: 50.0 mg/kg/injection, schedule: Q01DX001 (ip), vehicle: saline): 96 % of control
T/C (dose: 50.0 mg/kg/injection, schedule: Q04DX003 (ip), vehicle: saline): 97 % of control
T/C (dose: 100.0 mg/kg/injection, schedule: Q01DX001 (ip), vehicle: saline): 94 % of control
T/C (dose: 100.0 mg/kg/injection, schedule: Q04DX003 (ip), vehicle: saline): 100 % of control
T/C (dose: 200.0 mg/kg/injection, schedule: Q01DX001 (ip), vehicle: saline): 94 % of control
T/C (dose: 200.0 mg/kg/injection, schedule: Q04DX003 (ip), vehicle: saline): 96 % of control

Cc1cc(NC(=S)SC(C)C)ccc1Cl
T/C [6]: 99 % of control
T/C [7]: 102 % of control
T/C [8]: 102 % of control

C/C=C1\CN2CCC34c5ccccc5N5C(C6C7CC8N(CCC89c8ccccc8N(C(C)=O)C69)C/C7=C\C)OCC(C1CC23)C54 (stereo not given)
T/C (dose: 12.06 mg/kg/injection, schedule: Q01DX009 (ip), vehicle: saline with Tween-80): 100 % of control
T/C (dose: 24.12 mg/kg/injection, schedule: Q01DX009 (ip), vehicle: saline with Tween-80): 107 % of control
T/C (dose: 48.25 mg/kg/injection, schedule: Q01DX009 (ip), vehicle: saline with Tween-80): 109 % of control

COc1ccc2c(c1C)CN1CCc3cc4c(cc3C1=C2)OCO4
T/C (dose: 60.0 mg/kg/injection, schedule: Q01DX005 (ip), vehicle: saline with Tween-80): 99 % of control
T/C (dose: 120.0 mg/kg/injection, schedule: Q01DX005 (ip), vehicle: saline with Tween-80): 117 % of control
T/C (dose: 240.0 mg/kg/injection, schedule: Q01DX005 (ip), vehicle: saline with Tween-80): 100 % of control

COC(=O)Cn1/c(=N\N=C\c2ccc([N+](=O)[O-])cc2)sc2ccccc21
T/C (dose: 12.5 mg/kg/injection, schedule: Q01DX001 (ip), vehicle: saline with Tween-80): 86 % of control
T/C (dose: 25.0 mg/kg/injection, schedule: Q01DX001 (ip), vehicle: saline with Tween-80): 86 % of control
T/C (dose: 50.0 mg/kg/injection, schedule: Q01DX001 (ip), vehicle: saline with Tween-80): 92 % of control
T/C (dose: 400.0 mg/kg/injection, schedule: Q01DX001 (ip), vehicle: saline with Tween-80): 90 % of control

CS(=O)(=O)c1noc(N)n1
T/C (dose: 50.0 mg/kg/injection, schedule: Q01DX005 (ip), vehicle: saline): 115 % of control
T/C (dose: 100.0 mg/kg/injection, schedule: Q01DX005 (ip), vehicle: saline): 113 % of control
T/C (dose: 200.0 mg/kg/injection, schedule: Q01DX005 (ip), vehicle: saline): 115 % of control

O=C(On1nnc2ccccc2c1=O)c1ccccc1
T/C (dose: 12.5 mg/kg/injection, schedule: Q01DX009 (ip), vehicle: distilled water + Tween-80): 100 % of control
T/C (dose: 25.0 mg/kg/injection, schedule: Q01DX009 (ip), vehicle: distilled water + Tween-80): 102 % of control
T/C (dose: 50.0 mg/kg/injection, schedule: Q01DX009 (ip), vehicle: distilled water + Tween-80): 94 % of control
T/C (dose: 100.0 mg/kg/injection, schedule: Q01DX009 (ip), vehicle: distilled water + Tween-80): 106 % of control
T/C (dose: 200.0 mg/kg/injection, schedule: Q01DX009 (ip), vehicle: distilled water + Tween-80): 103 % of control

BrCCc1cc(Br)c(CCBr)cc1Br
T/C [5]: 97 % of control
T/C [9]: 97 % of control
T/C [10]: 107 % of control

Cc1ccc2oc(-c3ccccc3)c(O)c(=O)c2c1
T/C [11]: 100 % of control
T/C [12]: 108 % of control
T/C [13]: 95 % of control

COC(=O)CCSCc1ccccc1
T/C (dose: 60.0 mg/kg/injection, schedule: Q01DX005 (ip), vehicle: saline): 100 % of control
T/C (dose: 120.0 mg/kg/injection, schedule: Q01DX005 (ip), vehicle: saline): 100 % of control
T/C (dose: 240.0 mg/kg/injection, schedule: Q01DX005 (ip), vehicle: saline): 109 % of control

O=c1[nH]cnc2cc(N3CCCCC3)c([N+](=O)[O-])cc12
T/C [11]: 102 % of control
T/C [12]: 94 % of control
T/C [13]: 94 % of control

CCN(CC)CCN1C(=O)c2cccc3cc([N+](=O)[O-])cc(c23)C1=O
T/C [3]: 107 % of control
T/C [4]: 124 % of control
T/C [5]: 156 % of control
T/C [9]: 195 % of control

O=C(CCSC1=NCCCN1)c1ccc(F)cc1
T/C [14]: 111 % of control
T/C [1]: 118 % of control
T/C [2]: 118 % of control and 120 % of control

C/C(=N\NC(N)=O)C1(c2ccccc2)CCN(C)CC1
T/C (dose: 100.0 mg/kg/injection, schedule: Q04DX002 (ip), vehicle: Klucel (hydroxypropylcellulose) (HPC)): 100 % of control
T/C (dose: 200.0 mg/kg/injection, schedule: Q04DX002 (ip), vehicle: Klucel (hydroxypropylcellulose) (HPC)): 97 % of control
T/C (dose: 400.0 mg/kg/injection, schedule: Q04DX002 (ip), vehicle: Klucel (hydroxypropylcellulose) (HPC)): 96 % of control

O=C1OC(=O)[C@H]2[C@@H]1[C@H]1C=C[C@@H]2OC1=O
T/C [14]: 123 % of control
T/C (dose: 12.5 mg/kg/injection, schedule: Q01DX009 (ip), vehicle: saline): 103 % of control
T/C [1]: 108 % of control
T/C (dose: 25.0 mg/kg/injection, schedule: Q01DX009 (ip), vehicle: saline): 100 % of control
T/C [2]: 105 % of control
T/C [6]: 99 % of control and 92 % of control
T/C (dose: 100.0 mg/kg/injection, schedule: Q01DX009 (ip), vehicle: saline with Tween-80): 101 % of control
T/C [7]: 100 % of control
T/C [8]: 98 % of control

Cc1ccc(S(=O)(=O)NC(=O)C2C(=O)CC3(CCCCC3)CC2=O)cc1
T/C (dose: 50.0 mg/kg/injection, schedule: Q01DX009 (ip), vehicle: Klucel (hydroxypropylcellulose) (HPC)): 117 % of control
T/C (dose: 100.0 mg/kg/injection, schedule: Q01DX009 (ip), vehicle: Klucel (hydroxypropylcellulose) (HPC)): 123 % of control
T/C (dose: 200.0 mg/kg/injection, schedule: Q01DX009 (ip), vehicle: Klucel (hydroxypropylcellulose) (HPC)): 124 % of control

Cc1ccc(C(=O)n2c(Br)c(/C=N/NC(N)=S)c3ccccc32)cc1
T/C (dose: 100.0 mg/kg/injection, schedule: Q01DX001 (ip), vehicle: Klucel (hydroxypropylcellulose) (HPC)): 100 % of control
T/C (dose: 200.0 mg/kg/injection, schedule: Q01DX001 (ip), vehicle: Klucel (hydroxypropylcellulose) (HPC)): 100 % of control
T/C (dose: 400.0 mg/kg/injection, schedule: Q01DX001 (ip), vehicle: Klucel (hydroxypropylcellulose) (HPC)): 95 % of control

COC(=O)C(CO)NC(=O)C(NC(=O)OCc1ccccc1)C(C)O (stereo not drawn) (Cbz-Thr-Ser-OMe; configuration not given here)
T/C [5]: 118 % of control
T/C [9]: 101 % of control
T/C [10]: 108 % of control
